From patent US11305017B2, “Anti-fugetactic agent and anti-cancer agent combination therapy and compositions for the treatment of cancer” (The General Hospital Corporation, priority 2015, dated 2022)

Tested on: tumor that expresses high levels of CXCL12
Assay: Tumor growth in mice bearing a subcutaneous CXCL12-expressing tumor

Row | Structure (SMILES) | Delay in tumor growth, co-treatment versus TAX alone (AMD3100 subcutaneous once a day for 5 days, then 12.5 mg/kg TAX intraperitoneal one to three days after the final dose) | Tumor growth (12.5 mg/kg paclitaxel (TAX) intraperitoneal, 18 hours prior to assay, mice not administered AMD3100)
1 | c1cc(CN2CCCNCCNCCCNCC2)ccc1CN1CCCNCCNCCCNCC1 [AMD3100] | synergistic effect | –
2 | CC(=O)O[C@H]1C(=O)[C@@]2(C)[C@H]([C@H](OC(=O)c3ccccc3)[C@]3(O)C[C@H](OC(=O)[C@H](O)[C@@H](NC(=O)c4ccccc4)c4ccccc4)C(C)=C1C3(C)C)[C@]1(OC(C)=O)CO[C@@H]1C[C@@H]2O [TAX, paclitaxel] | – | delayed by TAX treatment, but resumes soon after the treatment is discontinued
